Experiments:
[1] = target: T1, Polyunsaturated fatty acid lipoxygenase ALOX15 (Oryctolagus cuniculus, UniProt P12530); experiment: Inhibition of rabbit 15-lipoxygenase in presence of arachidonic acid
T1 sequence (P12530 whole entry): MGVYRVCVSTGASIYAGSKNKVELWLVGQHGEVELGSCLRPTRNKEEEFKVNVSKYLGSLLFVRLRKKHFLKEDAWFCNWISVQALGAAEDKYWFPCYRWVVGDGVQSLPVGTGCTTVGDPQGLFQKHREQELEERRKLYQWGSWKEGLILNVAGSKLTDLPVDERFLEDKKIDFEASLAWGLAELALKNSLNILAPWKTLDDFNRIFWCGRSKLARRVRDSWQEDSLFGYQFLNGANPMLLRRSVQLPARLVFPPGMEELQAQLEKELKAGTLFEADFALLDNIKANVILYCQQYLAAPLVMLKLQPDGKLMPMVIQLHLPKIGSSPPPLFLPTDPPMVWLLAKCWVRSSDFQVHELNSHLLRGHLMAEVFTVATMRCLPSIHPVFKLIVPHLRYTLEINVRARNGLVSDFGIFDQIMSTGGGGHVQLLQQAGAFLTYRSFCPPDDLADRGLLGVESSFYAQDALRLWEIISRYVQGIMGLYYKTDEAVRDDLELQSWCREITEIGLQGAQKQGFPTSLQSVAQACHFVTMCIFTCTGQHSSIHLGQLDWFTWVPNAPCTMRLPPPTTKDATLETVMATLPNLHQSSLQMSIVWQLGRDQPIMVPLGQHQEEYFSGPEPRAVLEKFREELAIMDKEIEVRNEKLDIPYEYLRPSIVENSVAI

[2] = target: T1, Polyunsaturated fatty acid lipoxygenase ALOX15; experiment: Inhibition of rabbit 15-lipoxygenase in presence of linoleic acid
[3] = target: T2, Polyunsaturated fatty acid lipoxygenase ALOX12 (Homo sapiens) (UniProt P18054); experiment: Inhibition of platelet 12-lipoxygenase at 10 uM
T2 sequence (whole entry): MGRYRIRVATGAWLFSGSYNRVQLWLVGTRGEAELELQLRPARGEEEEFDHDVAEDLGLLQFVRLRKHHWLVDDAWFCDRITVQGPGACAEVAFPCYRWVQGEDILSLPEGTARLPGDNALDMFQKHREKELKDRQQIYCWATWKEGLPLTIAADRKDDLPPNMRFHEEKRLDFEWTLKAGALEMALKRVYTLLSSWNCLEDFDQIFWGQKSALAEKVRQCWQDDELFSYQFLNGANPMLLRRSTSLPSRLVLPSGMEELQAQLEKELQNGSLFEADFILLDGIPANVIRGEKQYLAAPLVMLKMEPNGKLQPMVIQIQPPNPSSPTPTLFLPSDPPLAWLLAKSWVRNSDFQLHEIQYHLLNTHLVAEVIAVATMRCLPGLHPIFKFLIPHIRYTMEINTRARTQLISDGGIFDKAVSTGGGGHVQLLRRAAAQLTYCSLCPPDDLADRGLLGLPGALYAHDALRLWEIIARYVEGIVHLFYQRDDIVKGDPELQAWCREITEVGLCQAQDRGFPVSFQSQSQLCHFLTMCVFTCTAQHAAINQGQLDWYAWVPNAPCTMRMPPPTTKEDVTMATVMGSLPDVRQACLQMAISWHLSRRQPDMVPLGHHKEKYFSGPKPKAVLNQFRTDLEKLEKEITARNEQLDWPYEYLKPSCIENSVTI

[4] = target: T3, Polyunsaturated fatty acid 5-lipoxygenase (Homo sapiens) (UniProt P09917); experiment: Inhibition of human 5-lipoxygenase at 10 uM
T3 sequence (whole entry): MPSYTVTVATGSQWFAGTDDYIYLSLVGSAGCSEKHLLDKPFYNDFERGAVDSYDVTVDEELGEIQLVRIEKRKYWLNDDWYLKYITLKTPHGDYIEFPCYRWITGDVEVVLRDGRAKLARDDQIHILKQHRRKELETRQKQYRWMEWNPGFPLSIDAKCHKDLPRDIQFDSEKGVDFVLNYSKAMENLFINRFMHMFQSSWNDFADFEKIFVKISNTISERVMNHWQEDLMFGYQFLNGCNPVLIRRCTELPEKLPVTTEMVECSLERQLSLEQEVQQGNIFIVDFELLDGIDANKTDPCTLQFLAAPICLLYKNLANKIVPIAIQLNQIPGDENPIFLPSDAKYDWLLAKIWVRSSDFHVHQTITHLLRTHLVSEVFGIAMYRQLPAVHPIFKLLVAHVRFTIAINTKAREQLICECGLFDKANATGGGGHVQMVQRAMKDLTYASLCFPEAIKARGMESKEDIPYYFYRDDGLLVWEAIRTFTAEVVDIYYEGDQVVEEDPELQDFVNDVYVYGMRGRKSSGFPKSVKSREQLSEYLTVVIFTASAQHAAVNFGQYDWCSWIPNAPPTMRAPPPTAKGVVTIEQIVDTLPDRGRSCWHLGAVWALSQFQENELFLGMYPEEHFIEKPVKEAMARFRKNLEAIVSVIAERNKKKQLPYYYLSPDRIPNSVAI

[5] = target: T4, Polyunsaturated fatty acid lipoxygenase ALOX15B (Homo sapiens) (UniProt O15296); experiment: Inhibition of human recombinant 15-lipoxygenase over-expressed in CHO cells at 10 uM; type: cell-based
T4 sequence (whole entry): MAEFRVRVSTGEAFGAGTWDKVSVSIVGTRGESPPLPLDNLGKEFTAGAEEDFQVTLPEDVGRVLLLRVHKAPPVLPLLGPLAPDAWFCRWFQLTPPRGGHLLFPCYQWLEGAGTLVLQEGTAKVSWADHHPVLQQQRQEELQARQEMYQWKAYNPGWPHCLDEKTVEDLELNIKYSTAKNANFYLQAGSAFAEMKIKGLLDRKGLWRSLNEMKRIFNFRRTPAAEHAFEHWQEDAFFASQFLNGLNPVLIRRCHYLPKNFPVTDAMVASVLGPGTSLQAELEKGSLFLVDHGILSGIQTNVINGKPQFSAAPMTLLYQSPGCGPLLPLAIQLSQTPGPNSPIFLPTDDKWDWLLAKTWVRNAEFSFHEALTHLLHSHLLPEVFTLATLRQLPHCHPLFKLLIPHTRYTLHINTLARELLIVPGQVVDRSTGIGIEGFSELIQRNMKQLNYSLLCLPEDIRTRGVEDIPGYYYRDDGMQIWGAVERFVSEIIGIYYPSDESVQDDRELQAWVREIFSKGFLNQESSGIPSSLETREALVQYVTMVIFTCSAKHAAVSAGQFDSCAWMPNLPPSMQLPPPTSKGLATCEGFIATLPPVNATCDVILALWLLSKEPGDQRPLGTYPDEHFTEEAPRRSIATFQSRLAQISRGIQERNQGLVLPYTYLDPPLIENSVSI

[6] = Cmax in Sprague-Dawley rat at 7 mg/kg, po; type: ADME, organism-based; design: dose 7 mg/kg, route oral; conditions: in vivo
[7] = target: T5, Polyunsaturated fatty acid 5-lipoxygenase (Homo sapiens, UniProt P09917); experiment: Inhibition of 5-lipoxygenase
T5 sequence (P09917 whole entry): T3 sequence (whole entry)

[8] = Hydrophilicity, log D at pH 6.5; type: physicochemical; conditions: buffer
[9] = Aqueous solubility at pH6.5; type: physicochemical; conditions: buffer, pH 6.5
[10] = target: T6, Polyunsaturated fatty acid lipoxygenase ALOX12 (Homo sapiens, UniProt P18054); experiment: Inhibition of platelet 12-lipoxygenase
T6 sequence (P18054 whole entry): T2 sequence (whole entry)

[11] = target: T3, Polyunsaturated fatty acid 5-lipoxygenase (Homo sapiens); experiment: Inhibition of human 5-lipoxygenase at 3 uM
[12] = target: T2, Polyunsaturated fatty acid lipoxygenase ALOX12 (Homo sapiens); experiment: Inhibition of platelet 12-lipoxygenase at 3 uM

Row | SMILES | IC50 [1] [nM] | IC50 [2] [nM] | also measured
1 | CCCCCc1ccc(S(=O)(=O)NCCc2nc(C3CC3)[nH]c2-c2ccc(OC)cc2)cc1 | > 10000 | > 10000 | –
2 | COc1ccc(-c2[nH]c(-c3ccccc3)nc2CCNS(=O)(=O)N[C@@H]2CCN(Cc3ccccc3)C2)cc1 | 719 | 83 | –
3 | CCCCCc1ccc(S(=O)(=O)NCCc2nc(C(C)(C)C)[nH]c2-c2ccc(OC)cc2)cc1 | > 10000 | 1920 | –
4 | COc1ccc(-c2[nH]c(-c3cccs3)nc2CCNS(=O)(=O)N(C)[C@@H]2CCN(Cc3ccccc3)C2)cc1 | 375 | 38 | –
5 | CCCCCc1ccc(S(=O)(=O)NCCc2nc(-c3ccccc3)[nH]c2-c2cccc(OC)c2)cc1 | 531 | 82 | –
6 | COc1ccc(-c2[nH]c(-c3cccs3)nc2CCNS(=O)(=O)N2CCN(c3ccccc3Cl)CC2)cc1 | 132 | 45 | –
7 | CCCCCc1ccc(S(=O)(=O)NCCc2nc(-c3ccccc3)[nH]c2-c2ccccc2)cc1 | 162 | 33 | inhibition [3]: 32%; inhibition [4]: 39%
8 | CCCCCc1ccc(S(=O)(=O)NCCc2[nH]cnc2-c2ccc(OC)cc2)cc1 | – | > 10000 | –
9 | CCCCCc1ccc(S(=O)(=O)NCCc2nc(-c3csc(C)n3)[nH]c2-c2ccc(OC)cc2)cc1 | – | 720 | –
10 | CCCCCc1ccc(S(=O)(=O)NCCc2nc(-c3ccc(C)cc3)[nH]c2-c2ccc(OC)cc2)cc1 | – | > 3000 | –
11 | COc1ccc(-c2[nH]c(-c3ccccc3)nc2CCNS(=O)(=O)N[C@H]2CCN(Cc3ccccc3)C2)cc1 | 2410 | 272 | –
12 | CCCCCc1ccc(S(=O)(=O)NCCc2nc(-c3ccc(OC)cc3)[nH]c2-c2ccc(OC)cc2)cc1 | – | > 10000 | –
13 | CCCCCc1ccc(S(=O)(=O)NCCc2nc(-c3cnccn3)[nH]c2-c2ccc(OC)cc2)cc1 | – | 2810 | –
14 | CCCCCc1ccc(S(=O)(=O)NCCc2nc(-c3cccs3)[nH]c2-c2ccc(OC)cc2)cc1 | 13 | 6 | inhibition [5]: 98%; Cmax [6]: 600 nM; IC50 [7]: > 10000 nM; inhibition [3]: 50%; logD [8]: > 6; inhibition [4]: 41%; solubility [9]: < 1 µg/mL; IC50 [10]: 9700 nM
15 | CCCCCc1ccc(S(=O)(=O)NCCc2nc(C)[nH]c2-c2ccc(OC)cc2)cc1 | – | > 10000 | –
16 | CCCCCc1ccc(S(=O)(=O)NCCc2nc(-c3cccc([N+](=O)[O-])c3)[nH]c2-c2ccc(OC)cc2)cc1 | 1100 | 99 | –
17 | CCCCCc1ccc(S(=O)(=O)NCCCc2nc(-c3ccccc3)[nH]c2-c2ccc(OC)cc2)cc1 | 914 | 140 | –
18 | COc1ccc(-c2[nH]c(-c3ccccc3)nc2CCNS(=O)(=O)c2ccc(C)cc2)cc1 | 2800 | 364 | –

Row | SMILES | IC50 [1] [nM] | IC50 [2] [nM] | also measured
19 | COc1ccc(-c2[nH]c(-c3cccs3)nc2CCNS(=O)(=O)N2CCN(c3ccc(Cl)c(Cl)c3)CC2)cc1 | 133 | 36 | inhibition [5]: 84%
20 | COc1ccc(-c2[nH]c(-c3ccccc3)nc2CCNS(=O)(=O)N(C)[C@H]2CCN(Cc3ccccc3)C2)cc1 | 82.2 | 80 | –
21 | CCCCCc1ccc(S(=O)(=O)NCCc2nc(-c3ccc(Cl)cc3)[nH]c2-c2ccc(OC)cc2)cc1 | 1100 | 21 | –
22 | COc1ccc(-c2[nH]c(-c3cccs3)nc2CCNS(=O)(=O)N(C)[C@@H]2CCN(Cc3ccc(Cl)c(Cl)c3)C2)cc1 | 83 | 11 | inhibition [3]: 42%; inhibition [4]: 67%
23 | CCN([C@@H]1CCN(C(C)c2ccc(F)cc2)C1)S(=O)(=O)NCCc1nc(-c2cccs2)[nH]c1-c1ccc(OC)cc1 (stereo partly specified) | – | – | inhibition [5]: 96%
24 | CCCCCc1ccc(S(=O)(=O)NCCc2nc(-c3ccccc3)[nH]c2-c2ccc(F)cc2)cc1 | 261 | 59 | inhibition [3]: 47%; inhibition [4]: 45%
25 | CCCCCc1ccc(S(=O)(=O)NCCc2nc(-c3cccnc3)[nH]c2-c2ccc(OC)cc2)cc1 | – | 560 | –
26 | CCCCCc1ccc(S(=O)(=O)NCCc2nc(-c3ccncc3)[nH]c2-c2ccc(OC)cc2)cc1 | 3210 | 87 | –
27 | CCCCCc1ccc(S(=O)(=O)NCCc2nc(-c3ccccn3)[nH]c2-c2ccc(OC)cc2)cc1 | 5320 | 970 | –
28 | COc1ccc(-c2[nH]c(-c3ccccc3)nc2CCNS(=O)(=O)N2CCN(c3ccc(Cl)c(Cl)c3)CC2)cc1 | 378 | 55 | –
29 | CCN([C@@H]1CCN(C(C)(C)c2ccccc2)C1)S(=O)(=O)NCCc1nc(-c2cccs2)[nH]c1-c1ccc(OC)cc1 | 132 | 10 | –
30 | COc1ccc(-c2[nH]c(-c3ccccc3)nc2CCNS(=O)(=O)N2CCN(c3ccccc3)CC2)cc1 | 3450 | 212 | –
31 | COc1ccc(-c2[nH]c(-c3ccccc3)nc2CCNS(=O)(=O)N(C)[C@@H]2CCN(Cc3ccccc3)C2)cc1 | 186 | 31 | inhibition [5]: 70%
32 | CCCCCc1ccc(S(=O)(=O)NCCCc2nc(-c3cccs3)[nH]c2-c2ccc(OC)cc2)cc1 | 396 | 53 | –
33 | CCCCCN1CCN(S(=O)(=O)NCCc2nc(-c3cccs3)[nH]c2-c2ccc(OC)cc2)CC1 | 646 | 91 | –
34 | CCCCCc1ccc(S(=O)(=O)NCCc2nc(-c3ccccc3)[nH]c2-c2ccc(OC)cc2)cc1 | 50 | 14 | inhibition [5]: 83%; inhibition [11]: 15%; inhibition [12]: 45%
35 | CCCCCc1ccc(S(=O)(=O)NCCc2nc(-c3ccccc3)[nH]c2-c2ccc(C(F)(F)F)cc2)cc1 | 372 | 72 | –

Reference: ChEMBL document CHEMBL1149679 (Bioorg Med Chem Lett, 2007)
